Legend:
rV2 = target: T1, rV2 (Rattus norvegicus, UniProt Q00788); assay: Luciferase reporter gene assay, rV2; format: cell-based; details: rV2, relative to dDAVP
T1 construct: host or cells: HEK-293 cells, transient
Experimental: (§1) Cell Maintenance. HEK-flp-in cells were maintained in Dulbecco's modified Eagle's medium (DMEM) containing 10% (v/v) heat-inactivated fetal bovine serum (FBS), 4 mM GlutaMAX™—I, and 25 μg/mL hygromycin B at 37° C. under 5% CO2 in a humidified atmosphere. […] On the day prior to the assay, cells were removed from culture flasks using trypsin EDTA, harvested in the medium used for cell culture, and seeded into 384-well (for V1a) or 96-well (for other receptors) poly-d-Iysine-treated plates at 7.5×10^4 cells in 20 μL/well for rV1a, 2.5×10^4 cells in 20 μL/well for hV1a, and 4-5×10^4 cells in 100 μL/well for all other receptors.
(§2) Functional Cell-Based Assays. To detect activity generated by binding of the test compounds to endogenous rV1a receptors or the stably expressed hV1a receptors, Fluorometric Imaging Plate Reader (FLlPR) calcium assays were performed. Briefly, real-time fluorescence of an intracellular calcium-sensitive dye was measured immediately upon addition of the test compound at various concentrations. […] Reporter gene assays were used to monitor agonist-induced activity at the human and rat V1b, V2, and OT receptors. […] Expression of the luciferase gene was determined after 5-h incubation with various concentrations of test compound. […] For V1a receptor response, area under the curve of the real-time calcium traces, expressed as relative fluorescence units, was determined. […]

adult male Wistar rats = assay: Skin blood flow and blood lactate in anesthetized rats (IV infusion); format: in vivo, rat
Experimental: This study was performed over multiple experiments using a total of 48 adult male Wistar rats. […] Compounds were infused via an IV catheter at six sequentially increasing doses.
On the day of experimentation animals were anesthetized and instrumented. A tracheostomy was performed to allow assisted respiration and three catheters were placed. Laser Doppler probes were positioned on a shaved portion of the animal's lower abdominal skin for blood-flow measurements. Ventilation was initiated, and baseline readings for the primary parameter of skin blood flow (SBF) were recorded. Readings for the secondary parameters were also recorded: (1) blood lactate concentration, (2) mean arterial pressure (MAP), and (3) blood pH. Data collection was performed continuously for SBF and MAP using NOTOCORD-hem™ (Instem), and blood samples were taken at each compound dose and immediately analyzed using an i-STAT® meter.
After the final dose administration, animals were euthanized and a final SBF measurement was recorded to detect any signal from the flow probe after the animal's heart stopped beating to control for a signal not attributed to blood flow. Animal body temperature, pulse, and ventilation adequacy were monitored throughout the procedure.

rOTR = target: T2, rOTR (Rattus norvegicus, UniProt P70536); details: relative to carbetocin
T2 sequence (P70536 1-388): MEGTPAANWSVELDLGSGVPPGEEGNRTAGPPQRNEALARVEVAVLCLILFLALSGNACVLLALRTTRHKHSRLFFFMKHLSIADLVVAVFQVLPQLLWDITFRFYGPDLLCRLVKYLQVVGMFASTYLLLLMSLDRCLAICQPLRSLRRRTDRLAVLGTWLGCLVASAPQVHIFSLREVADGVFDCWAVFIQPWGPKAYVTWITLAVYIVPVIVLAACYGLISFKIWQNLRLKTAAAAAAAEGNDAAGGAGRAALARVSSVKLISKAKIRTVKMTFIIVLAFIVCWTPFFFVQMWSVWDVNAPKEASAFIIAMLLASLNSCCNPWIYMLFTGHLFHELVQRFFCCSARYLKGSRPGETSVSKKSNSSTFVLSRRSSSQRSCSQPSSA
Experimental: as §1, §2

T1 sequence (Q00788 whole entry): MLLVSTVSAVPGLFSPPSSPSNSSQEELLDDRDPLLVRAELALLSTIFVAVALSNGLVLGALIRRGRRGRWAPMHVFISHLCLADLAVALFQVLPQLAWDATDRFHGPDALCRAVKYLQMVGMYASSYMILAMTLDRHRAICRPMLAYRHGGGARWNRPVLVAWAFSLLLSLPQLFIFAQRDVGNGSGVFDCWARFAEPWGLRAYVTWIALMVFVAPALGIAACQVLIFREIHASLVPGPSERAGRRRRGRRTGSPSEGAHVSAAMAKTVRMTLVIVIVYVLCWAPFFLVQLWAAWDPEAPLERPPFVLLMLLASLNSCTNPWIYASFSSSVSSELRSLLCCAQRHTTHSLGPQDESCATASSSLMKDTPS

NC(=O)CC[C@@H]1NC(=O)[C@H](Cc2ccccc2)NC(=O)[C@H](Cc2ccc(O)cc2)NC(=O)[C@@H](N)CSSC[C@@H](C(=O)N2CCC[C@H]2C(=O)N[C@@H](CCCN=C(N)N)C(=O)NCC(N)=O)NC(=O)[C@H](CC(N)=O)NC1=O [AVP, arginine vasopressin]
% MPE Mean (rV2): 98 % MPE | ED50, skin blood flow (adult male Wistar rats; anesthetized rats, IV infusion): 12.6 pmol/kg/min | mean blood lactate concentration (adult male Wistar rats; rats, IV 3 pmoL/kg/min): 1.34 mM | mean blood lactate concentration (adult male Wistar rats; rats, IV 600 pmoL/kg/min): 4.27 mM | blood lactate at highest doses tested (adult male Wistar rats; rats, IV, compared with vehicle): significantly elevated | decrease of skin blood flow from baseline (approximate maximal) (adult male Wistar rats; rats, intravenous administration): about 90% | % MPE Mean (rOTR): 82 % MPE

Source: US20260137790A1, “MIXED VASOPRESSIN RECEPTOR AGONIST-ANTAGONIST FOR MODULATING MEAN ARTERIAL PRESSURE” (FERRING B.V., priority 2022, published 2026)
